In publication PMC3080343, “Small lytic peptides escape the inhibitory effect of heparan sulfate on the surface of cancer cells” (BMC Cancer, 2011):
Where two headings read alike, the source gives them in different places. Where a SMILES comes first, the peptide text is derived from it. [ ]: non-standard residue; d: D form. Dip = N[C@H](C(=O)O)C(c1ccccc1)c1ccccc1; Orn = NCCC[C@H](N)C(=O)O

What was measured:
[1] = test system: human red blood cells (RBC); type: cell-based; conditions: red cells of human, 1 h
Description: The hemolytic activity of the peptides was determined using freshly isolated human red blood cells (RBC) as previously described. Briefly, venous blood was collected, transferred to a tube containing heparin (10 U/ml) and centrifuged at 1500 rpm for 10 minutes in order to isolate the red blood cells. The red blood cells were washed three times with PBS (35 mM phosphate buffer with 150 mM NaCl, pH 7.4) by centrifugation at 1500 rpm for 10 minutes, and adjusted to 10% hematocrit with PBS. Peptide solutions were added to yield a final concentration range of the peptide from 1000 μg/ml to 1 μg/ml and a red blood cell concentration of 1%. The resulting suspension was incubated with agitation for 1 hour at 37°C. After incubation the suspension was centrifuged at 4000 rpm for 5 minutes, and the released hemoglobin were monitored by measuring the absorbance of the supernatant at 405 nm on a microplate reader (VERSAmax™ Molecular Devices, CA). PBS and 1% Triton X-100 were used as negative and positive controls, respectively. Peptide concentrations corresponding to 50% hemolysis (EC50) were determined from dose-response curves.

HUVEC = type: cell-based, human; conditions: 2 h
Description: (§1) The colorimetric MTT viability assay was used to investigate the cytotoxic effect of the peptides. The HT-29, MT-1, Kelly, HUVEC and MRC-5 cells were seeded at a concentration of 2 × 10^5 cells/ml, 1.5 × 10^5 cells/ml, 2 × 10^5 cells/ml, 1 × 10^5 cells/ml and 1 × 10^5 cells/ml in a volume of 0.1 ml in 96-well plates, respectively. CHO-K1 and pgsA-745 cells were seeded at a concentration of 1 × 10^5 cells/ml. The cells were allowed to adhere overnight in complete medium. Before adding different concentrations of the peptides (10-500 μg/ml) to the cells, the culture medium was removed and the cells were washed twice in serum-free culture medium. The non-adherent lymphoma cell lines were seeded at a density of 4 × 10^5 cells/ml using serum-free medium. After incubating the cells with peptides for 30 minutes at 37°C, 0.5 mg MTT-solution was added to each well and the incubation was continued for 2 hours. A volume of 70 μl or 130 μl per well was removed from the non-adherent and adherent cells, respectively. In order to dissolve the formazan crystals, 100 μl of 0.04 M HCl in isopropanol was added and the plates were shaken for 1 hour on a Thermolyne Roto Mix (Dubuque, IA) at room temperature. The optical density was measured on a microplate reader (VERSAmax™ Molecular Devices, CA). Cells treated with 1% Triton X-100 in serum-free medium was used as positive control for 100% cell death, whereas cells in serum free medium were used as negative control. Cell survival was determined from the ΔA590 nm relative to the negative control (100% living cells) and expressed as 50% inhibitory concentration (IC50).

pgsA-745 = type: cell-based, Chinese hamster; conditions: for IC50: 2 h
Description: as §1

CHO-K1 = type: cell-based, Chinese hamster; conditions: 2 h
Description: as §1

CHO-K1 cells = type: cell-based, Chinese hamster
Description: as §1
In order to investigate whether soluble CS or HS would interfere with the cytotoxic activity, the peptides were added to cultures of CHO-K1 cells together with exogenous CS and HS. […] The cytotoxic activity of LTX-318 was not inhibited in the presence of soluble CS or HS (Figure 5c).

KMM-1 = type: cell-based; conditions: 2 h
Description: as §1

Ramos = type: cell-based; conditions: 2 h
Description: as §1

HT-29 = type: cell-based; conditions: 2 h
Description: as §1

KMS-5 = type: cell-based; conditions: 2 h
Description: as §1

lymphoma cells = type: cell-based; conditions: 2 h
Description: as §1

U-266 = type: cell-based; conditions: 2 h
Description: as §1

Sudhl-4 = type: cell-based; conditions: 2 h
Description: as §1

Kelly = type: cell-based; conditions: for IC50: 2 h
Description: as §1

MT-1 = type: cell-based; conditions: 2 h
Description: as §1

[2] = MTT viability assay, MRC-5 fibroblast-like cells; type: cell-based; conditions: human
Description: as §1

MRC-5 = test: MTT viability assay, MRC-5 fibroblast-like cells; type: cell-based; conditions: 2 h
Description: as §1

tumor = test system: tumor; set-up: method as in PMID 20422410; conditions: cited from earlier work
[3] = Affinity chromatography on CS-Sepharose; type: binding; conditions: NaCl needed to elute peptide from CS-Sepharose; mean of four experiments
Description: (§2) Two different Sepharose affinity columns were prepared, using HS and CS as ligands. The ligands were mixed with swollen CNBr-activated Sepharose 4B. Non-reactive groups were blocked with 0.1 M Tris-HCl, pH 8.0 and the gel was washed before packing. The peptides were dissolved in 5 mM phosphate-buffer, pH 7.4 at a concentration of 0.5 mg/ml, and 50 μl samples were applied. A gradient of NaCl was used to elute the different peptides from the columns using a GradiFrac from Amersham Pharmacia Biotech (Uppsala, Sweden) at a flow rate of 1.0 ml/min. The peptides were detected using a monitor UV-1 from Amershan Pharmacia Biotech (Uppsala, Sweden).

[4] = test system: carcinoma cell lines HT-29 and MT-1; test: MTT viability assay, carcinoma cell lines HT-29 and MT-1; type: cell-based; conditions: selectivity versus HUVEC and MRC-5
Description: as §1, with “Cells treated with 1% Triton X-100 in serum-free medium was used as positive control for 100% cell death, whereas cells in serum free medium were used as negative control. Cell survival was determined from the ΔA590 nm relative to the negative control (100% living cells) and expressed as 50% inhibitory concentration (IC50).” left out

[5] = Affinity chromatography on HS-Sepharose; type: binding; conditions: NaCl needed to elute peptide from HS-Sepharose; mean of four experiments
Description: as §2

[6] = test system: human red blood cells (RBC); set-up: method as in Eliassen et al. [69]; conditions: hemolysis; ref Eliassen et al. [69]; cited from earlier work

| IC50 [1] [µM] | IC50 (pgsA-745) [µM] | IC50 (KMM-1) [µM] | IC50 (Ramos) [µM] | IC50 (HT-29) [µM] | IC50 (KMS-5) [µM] | IC50 (lymphoma cells) [µM] | IC50 (U-266) [µM] | IC50 (Sudhl-4) [µM] | IC50 (Kelly) [µM] | IC50 (MT-1) [µM] | SMILES | IC50 (HUVEC) [µM] | IC50 (CHO-K1) [µM] | inhibitory effect of soluble CS and HS on cytotoxic activity (CHO-K1 cells) | inhibitory effect of soluble HS on cytotoxic activity compared to CS (CHO-K1 cells) | IC50 at 30 min [2] [µM] | Elution concentration from CS [3] [mM NaCl] | Elution concentration from HS [5] [mM NaCl] | further results |
| --- | --- | --- | --- | --- | --- | --- | --- | --- | --- | --- | --- | --- | --- | --- | --- | --- | --- | --- | --- |
| > 695 | 22 ± 3 | 17 ± 2 | 10 ± 1.7 | 38 ± 3 | 10 ± 1.5 | 10 to 23 | 13 ± 1.5 | 23 ± 2 | 14 ± 1 | 31 ± 3 | NCCCC[C@H](NC(=O)[C@@H](NC(=O)[C@H](Cc1c[nH]c2ccccc12)NC(=O)[C@H](CCCCN)NC(=O)[C@H](CCCCN)NC(=O)[C@H](Cc1c[nH]c2ccccc12)NC(=O)[C@H](Cc1c[nH]c2ccccc12)NC(=O)[C@H](CCCCN)NC(=O)[C@@H](N)CCCCN)C(c1ccccc1)c1ccccc1)C(N)=O [LTX-315, KKWWKKWDipK-NH2] (H-KKWWKKW[Dip]K-NH2) | 28 ± 1 | 22 ± 5 | only a negligible inhibitory effect | much higher inhibitory effect | 41 ± 3 |  |  | EC50 (50% hemolysis) [1]: > 1000 µg/mL |
| > 695 | 176 ± 3 | 111 ± 1 | 82 ± 11 | 248 ± 5 | 73 ± 5 | 73 to 106 | 106 ± 17 | 110 ± 5 | 78 ± 7 | 216 ± 36 | NCCC[C@H](NC(=O)[C@H](Cc1c[nH]c2ccccc12)NC(=O)[C@H](Cc1c[nH]c2ccccc12)NC(=O)[C@H](CCCN)NC(=O)[C@H](CCCN)NC(=O)[C@@H](NC(=O)[C@H](Cc1c[nH]c2ccccc12)NC(=O)[C@H](CCCN)NC(=O)[C@@H](N)CCCN)C(c1ccccc1)c1ccccc1)C(N)=O [LTX-318, OOWDipOOWWO-NH2] (H-[Orn][Orn]W[Dip][Orn][Orn]WW[Orn]-NH2) | > 347 | 145 ± 6 |  |  | > 347 |  |  | IC50 against endothelial cells (no IC50 value at the highest concentration tested) (HUVEC): > 500 µg/mL; cytotoxic activity in the presence of soluble CS or HS (CHO-K1 cells): not inhibited; IC50 against fibroblast cells (no IC50 value at the highest concentration tested) (MRC-5): > 500 µg/mL |
| > 695 | 54 ± 2 | 40 ± 6 | 30 ± 2 | 75 ± 5 | 31 | 31 to 46 | 36 ± 6 | 46 ± 6 | 28 | 73 ± 2 | NCCCC[C@H](NC(=O)[C@H](Cc1c[nH]c2ccccc12)NC(=O)[C@H](CCCCN)NC(=O)[C@H](CCCCN)NC(=O)[C@@H](NC(=O)[C@H](Cc1c[nH]c2ccccc12)NC(=O)[C@H](CCCCN)NC(=O)[C@H](CCCCN)NC(=O)[C@@H](N)Cc1c[nH]c2ccccc12)C(c1ccccc1)c1ccccc1)C(N)=O [LTX-302, WKKWDipKKWK-NH2] (H-WKKW[Dip]KKWK-NH2; N-terminus assumed) | 123 ± 9 | 42 ± 7 | only a negligible inhibitory effect | much higher inhibitory effect | 126 ± 11 | 187 ± 13 | 330 ± 9 | tumor response after intratumoral injection (tumor): complete regression of the tumor; Ratio (IC50) pgsA-745/CHO-K1 (pgsA-745): 1.28; fold higher activity against neuroblastoma cell line in comparison to endothelial and fibroblast cells (Kelly; selectivity versus HUVEC and MRC-5): ~ 4.5 fold; fold higher activity against carcinoma cell lines in comparison to endothelial and fibroblast cells [4]: ~ 2 fold |
|  |  |  |  |  |  |  |  |  |  |  | CC[C@H](C)[C@@H]1NC(=O)[C@H](CO)NC(=O)[C@@H]2CCCN2C(=O)[C@H](C)NC(=O)CNC(=O)[C@H](CC(C)C)NC(=O)[C@H](CCCCN)NC(=O)[C@H](CCCCN)NC(=O)[C@H](CCSC)NC(=O)[C@H](CCCNC(=N)N)NC(=O)[C@H](Cc2c[nH]c3ccccc23)NC(=O)[C@H](CCC(N)=O)NC(=O)[C@H](Cc2c[nH]c3ccccc23)NC(=O)[C@H](CCCNC(=N)N)NC(=O)[C@H](CCCNC(=N)N)NC(=O)[C@@H](NC(=O)[C@H](CCCCN)NC(=O)[C@@H](N)Cc2ccccc2)CSSC[C@@H](C(=O)N[C@H](C(=O)N[C@@H](CCCNC(=N)N)C(=O)N[C@@H](CCCNC(=N)N)C(=O)N[C@@H](C)C(=O)N[C@@H](Cc2ccccc2)C(=O)O)C(C)C)NC(=O)[C@H]([C@@H](C)O)NC1=O [LfcinB, bovine lactoferricin, reference compound] |  |  |  |  |  | 130 ± 9 | 417 ± 4 | IC50 [6]: > 500 µM; IC50 at 30 min ([2]; MTT, 30 min incubation, serum-free, read-out: MRC-5 IC50): > 160 µM |
